The values that follow come from patent US8053445B2, “Utilities of olefin derivatives” (Shionogi & Co., Ltd., priority 2001, dated 2011).

System in one data set: not given
Assay: not given
Details: not given
In the case of `c1ccc2nc(-c3ccsc3)ccc2c1` [Ia-15, 2-(thiophen-3-yl)quinoline], the melting point (commonly the temperature of the solid-liquid transition) fell in the range of 132 to 133 °C. Compound `c1ccc2nc(-c3ccsc3)cnc2c1` [Ia-6, 2-(thiophen-3-yl)quinoxaline] gave a melting point of 86 to 87 °C. With `Clc1ccc(-c2ccc3ccccc3n2)cc1` [Ia-16, 2-(4-chlorophenyl)quinoline], the melting point lay within 113 to 115 °C. Turning to `c1ccc(-c2ccc(-c3ccc4ccccc4n3)cc2)cc1` [Ia-12, 2-(biphenyl-4-yl)quinoline], the melting point was in the range of 180 to 182 °C. Consider `COc1ccc(-c2cnc3ccccc3n2)cc1` [Ia-3, 2-(4-methoxyphenyl)quinoxaline], for which the melting point was 101 to 102 °C. On to `c1ccc(-c2ccc(-c3cnc4ccccc4n3)cc2)cc1` [Ia-10, 2-(biphenyl-4-yl)quinoxaline], for which the melting point lay in the range of 126 to 127 °C.

The test system of another data set is promoter region of the gene encoding human apoAI. Put plainly: Activity to enhance the expression of human apoAI (apoAI promoter-luciferase reporter in HepG2 cells). The data set is classed as cell-based. The settings on record: HepG2 cells stably expressing apoAI promoter-luciferase reporter; compounds at 0 to 10 μg/mL, 24 hours incubation. As to the method: The promoter region of the gene encoding human apoAI was isolated, and ligated upstream the structure gene of firefly luciferase to construct a reporter plasmid. The reporter plasmid and a marker plasmid conferring the neomycin resistance were co-infected to cell lines derived from human hepatoma, HepG2 cells, and the cell lines were incubated in a selection medium comprising DMEM medium containing 10% fetal calf serum supplemented with G418 (Final concentration: 0.7 mg/mL, Gibco) to give established strains that stably expressed the reporter molecule. The strains were seeded to a 96-well culture plates at a density of 50,000 cells per well, and incubated for 48 hours at 37° C. under an atmosphere of 5% carbon dioxide. […] The concentration of the compounds, which intensified the luciferase activity twice compared to that of control (DMSO without any compound of the invention added) was set as the minimal effective dose (MED).
Background: A reporter such as luciferase makes a cellular process visible.
As for `FC(F)(F)c1ccc(C=Cc2ccccn2)cc1` [Ib-9, 2-[2-(4-trifluorophenyl)vinyl]pyridine], the “MED (minimum effective dose: concentration of the compound which intensified the luciferase activity twice compared to control)” value stood at 0.71 µg/mL. For the compound “2-(2-thiophen-3-yl-vinyl)benzothiazole [Ib-91]”, the “MED (minimum effective dose: concentration of the compound which intensified the luciferase activity twice compared to control)” value was 0.7 µg/mL. Regarding `COc1cc(C=CC=Cc2ccccn2)ccc1OC(C)=O` [Ic-18, phenyl 2-methoxy-4-(4-pyridin-2-yl-buta-1,3-dienyl)acetate], the “MED (minimum effective dose: concentration of the compound which intensified the luciferase activity twice compared to control)” value worked out at 1.9 µg/mL. Consider “2-phenyl-5-pyridin-2-yl-penta-2,4-diene nitrile [Ic-76]”, for which the “MED (minimum effective dose: concentration of the compound which intensified the luciferase activity twice compared to control)” value is 0.23 µg/mL. On to `C(=Cc1ccccc1)Sc1ccccn1` [Id-4, 2-styrylsulfanil-pyridine], for which the “MED (minimum effective dose: concentration of the compound which intensified the luciferase activity twice compared to control)” value stood at 1.0 µg/mL.
